Experimental data taken from ChEMBL document CHEMBL5576063, “Design, concise synthesis and evaluation of novel amide-based combretastatin A-4 analogues as potent tubulin inhibitors” (Bioorg Med Chem Lett, 2024).
Values belong to the molecule of their own block, whether it stands above or below them. Activity calls are given as the source filed them. No cut-off for these calls is given here.

Columns and labels:
[1] = test system: HeLa; assay: Antiproliferative activity against human HeLa cells assessed as inhibition of cell growth by MTT assay; type: functional, cell-based
[2] = test system: A549; assay: Antiproliferative activity against human A549 cells assessed as inhibition of cell growth by MTT assay; type: functional, cell-based
[3] = Antiproliferative activity against HEK293 cells assessed as inhibition of cell growth by MTT assay; type: toxicity, cell-based; conditions: human
[4] = test system: HT-29; assay: Antiproliferative activity against human HT-29 cells assessed as inhibition of cell growth by MTT assay; type: functional, cell-based
[5] = test system: HCT-116; assay: Antiproliferative activity against human HCT-116 cells assessed as inhibition of cell growth by MTT assay; type: functional, cell-based
[6] = molecular target: T1, Tubulin (Homo sapiens) (UniProt P68371+Q9H4B7+P0DPH7+P68366+Q13509+Q71U36+P04350+Q3ZCM7+P07437+P68363+Q9BQE3+Q6PEY2+Q13885+Q9BVA1+Q9BUF5); assay: Inhibition of tubulin polymerization (unknown origin) at 10 uM measured upto 30 mins by spectrophotometry based analysis relative to control; type: protein-complex assay
[7] = molecular target: Tubulin; assay: Inhibition of tubulin polymerization (unknown origin) measured upto 30 mins by spectrophotometry based analysis; type: protein-complex assay, Homo sapiens
[8] = test system: A549; assay: Induction of apoptosis in human A549 cells assessed as necrotic cells at 1.2 uM measured after 24 hrs by annexin-V/PI staining based flow cytometry analysis (reference value: 0.48%); type: functional
[9] = test system: A549; assay: Induction of apoptosis in human A549 cells assessed as early apoptotic cells at 2.4 uM measured after 24 hrs by annexin-V/PI staining based flow cytometry analysis (reference value: 1.87%); type: functional
[10] = test system: A549; assay: Induction of apoptosis in human A549 cells assessed as late apoptotic cells at 2.4 uM measured after 24 hrs by annexin-V/PI staining based flow cytometry analysis (reference value: 0.25%); type: functional
[11] = test system: A549; assay: Induction of cell cycle arrest in human A549 cells assessed as accumulation of cells at S phase at 4.8 uM measured after 24 hrs by PI staining based flow cytometry analysis (reference value: 23.17%); type: functional
[12] = test system: A549; assay: Induction of cell cycle arrest in human A549 cells assessed as accumulation of cells at S phase at 2.4 uM measured after 24 hrs by PI staining based flow cytometry analysis (reference value: 23.17%); type: functional
[13] = test system: A549; assay: Induction of cell cycle arrest in human A549 cells assessed as accumulation of cells at G0/G1 phase at 1.2 uM measured after 24 hrs by PI staining based flow cytometry analysis (reference value: 55.88%); type: functional
[14] = test system: A549; assay: Induction of apoptosis in human A549 cells assessed as early apoptotic cells at 4.8 uM measured after 24 hrs by annexin-V/PI staining based flow cytometry analysis (reference value: 1.87%); type: functional
[15] = molecular target: T1, Tubulin (Homo sapiens); assay: Inhibition of tubulin polymerization (unknown origin) at 6 uM measured upto 30 mins by spectrophotometry analysis; type: protein-complex assay
[16] = test system: A549; assay: Induction of cell cycle arrest in human A549 cells assessed as accumulation of cells at G0/G1 phase at 2.4 uM measured after 24 hrs by PI staining based flow cytometry analysis (reference value: 55.88%); type: functional
[17] = test system: A549; assay: Induction of apoptosis in human A549 cells assessed as early apoptotic cells at 1.2 uM measured after 24 hrs by annexin-V/PI staining based flow cytometry analysis (reference value: 1.87%); type: functional
[18] = test system: A549; assay: Induction of cell cycle arrest in human A549 cells assessed as accumulation of cells at G2/M phase at 4.8 uM measured after 24 hrs by PI staining based flow cytometry analysis (reference value: 21.00%); type: functional
[19] = test system: A549; assay: Induction of cell cycle arrest in human A549 cells assessed as accumulation of cells at G2/M phase measured after 24 hrs by PI staining based flow cytometry analysis; type: functional; conditions: dose 1.2-4.8 µM
[20] = test system: A549; assay: Induction of apoptosis in human A549 cells assessed as necrotic cells at 4.8 uM measured after 24 hrs by annexin-V/PI staining based flow cytometry analysis (reference value: 0.48%); type: functional
[21] = test system: A549; assay: Induction of cell cycle arrest in human A549 cells assessed as accumulation of cells at S phase at 1.2 uM measured after 24 hrs by PI staining based flow cytometry analysis (reference value: 23.17%); type: functional
[22] = test system: A549; assay: Induction of apoptosis in human A549 cells assessed as late apoptotic cells at 4.8 uM measured after 24 hrs by annexin-V/PI staining based flow cytometry analysis (reference value: 0.25%); type: functional
[23] = test system: A549; assay: Induction of apoptosis in human A549 cells assessed measured after 24 hrs by annexin-V/PI staining based flow cytometry analysis; type: functional, cell-based; conditions: dose 1.2-4.8 µM
[24] = test system: A549; assay: Induction of apoptosis in human A549 cells assessed as late apoptotic cells at 1.2 uM measured after 24 hrs by annexin-V/PI staining based flow cytometry analysis (reference value: 0.25%); type: functional
[25] = test system: A549; assay: Induction of apoptosis in human A549 cells assessed as necrotic cells at 2.4 uM measured after 24 hrs by annexin-V/PI staining based flow cytometry analysis (reference value: 0.48%); type: functional
[26] = test system: A549; assay: Induction of cell cycle arrest in human A549 cells assessed as accumulation of cells at G0/G1 phase at 4.8 uM measured after 24 hrs by PI staining based flow cytometry analysis (reference value: 55.88%); type: functional
[27] = test system: A549; assay: Induction of apoptosis in human A549 cells assessed as viable cells at 1.2 uM measured after 24 hrs by annexin-V/PI staining based flow cytometry analysis (reference value: 97.4%); type: functional; conditions: read-out: Activity
[28] = test system: A549; assay: Induction of cell cycle arrest in human A549 cells assessed as accumulation of cells at G2/M phase at 1.2 uM measured after 24 hrs by PI staining based flow cytometry analysis (reference value: 21.00%); type: functional
[29] = test system: A549; assay: Induction of apoptosis in human A549 cells assessed as viable cells at 2.4 uM measured after 24 hrs by annexin-V/PI staining based flow cytometry analysis (reference value: 97.4%); type: functional; conditions: read-out: Activity
[30] = test system: A549; assay: Induction of cell cycle arrest in human A549 cells assessed as accumulation of cells at G2/M phase at 2.4 uM measured after 24 hrs by PI staining based flow cytometry analysis (reference value: 21.00%); type: functional
[31] = test system: A549; assay: Induction of apoptosis in human A549 cells assessed as viable cells at 4.8 uM measured after 24 hrs by annexin-V/PI staining based flow cytometry analysis (reference value: 97.4%); type: functional; conditions: read-out: Activity
[32] = molecular target: T1, Tubulin (Homo sapiens); assay: Inhibition of tubulin polymerization (unknown origin) at 10 uM measured upto 30 mins by spectrophotometry analysis; type: protein-complex assay

SMILES: COc1ccc(/C=C(/C(=O)Nc2ccc(N3CCN(C)CC3)cc2)c2cc(OC)c(OC)c(OC)c2)cc1OC(C)=O
- IC50 [2]: > 50 µM

SMILES: COc1ccc(/C=C(/C(=O)NC2CCCC2)c2cc(OC)c(OC)c(OC)c2)cc1OC(C)=O
- IC50 [2]: > 50 µM

SMILES: CCN1CCN(c2ccc(NC(=O)/C(=C/c3ccc(OC)c(O)c3)c3cc(OC)c(OC)c(OC)c3)cc2)CC1
- IC50 [2]: 45.7 µM

SMILES: COc1ccc(/C=C(/C(=O)NC2CCCC2)c2cc(OC)c(OC)c(OC)c2)cc1O
- IC50 [2]: > 50 µM

SMILES: COc1ccc(NC(=O)/C(=C/c2ccc(OC)c(O)c2)c2cc(OC)c(OC)c(OC)c2)cc1
- IC50 [2]: > 50 µM

SMILES: COc1ccc(/C=C(/C(=O)Nc2ccc(N3CCN(C)CC3)cc2)c2cc(OC)c(OC)c(OC)c2)cc1O
- IC50 [2]: > 50 µM

SMILES: COc1ccc(/C=C(/C(=O)Nc2cc(OC)c(OC)c(OC)c2)c2cc(OC)c(OC)c(OC)c2)cc1O
- IC50 [2]: > 50 µM

SMILES: COc1ccc(/C=C(/C(=O)Nc2ccc(Cl)cc2)c2cc(OC)c(OC)c(OC)c2)cc1O
- IC50 [2]: > 50 µM

SMILES: COc1ccc(/C=C\c2cc(OC)c(OC)c(OC)c2)cc1O [COMBRETASTATIN A4]
- IC50 [1]: 0.08 µM
- IC50 [2]: 0.11 µM
- IC50 [3]: 48.1 µM
- IC50 [4]: 1.65 µM
- IC50 [5]: 4.77 µM

SMILES: CC(=O)O[C@H]1C(=O)[C@@]2(C)[C@H]([C@H](OC(=O)c3ccccc3)[C@]3(O)C[C@H](OC(=O)[C@H](O)[C@@H](NC(=O)c4ccccc4)c4ccccc4)C(C)=C1C3(C)C)[C@]1(OC(C)=O)CO[C@@H]1C[C@@H]2O
- inhibition [32]: inactive

SMILES: COc1ccc(/C=C(/C(=O)NC2CC2)c2cc(OC)c(OC)c(OC)c2)cc1O
- IC50 [2]: > 50 µM

SMILES: CCc1ccc(NC(=O)/C(=C/c2ccc(OC)c(O)c2)c2cc(OC)c(OC)c(OC)c2)cc1
- IC50 [2]: > 50 µM

SMILES: COc1ccc(/C=C(/C(=O)NC2CC2)c2cc(OC)c(OC)c(OC)c2)cc1OC(C)=O
- IC50 [2]: > 50 µM

SMILES: COc1ccc(/C=C(/C(=O)NCc2ccccc2)c2cc(OC)c(OC)c(OC)c2)cc1O
- IC50 [2]: > 50 µM

Continued by falling IC50 [2], values first:

- IC50 [2]: 43.4 µM
SMILES: COc1ccc(/C=C(/C(=O)Nc2ccc(C(C)C)cc2)c2cc(OC)c(OC)c(OC)c2)cc1O

- IC50 [2]: 33.8 µM
SMILES: COc1ccc(/C=C(/C(=O)NCc2ccccc2)c2cc(OC)c(OC)c(OC)c2)cc1OC(C)=O

- IC50 [2]: 24.5 µM
SMILES: COc1ccc(/C=C(/C(=O)Nc2ccc(C)cc2)c2cc(OC)c(OC)c(OC)c2)cc1O

- IC50 [2]: 4.85 µM
SMILES: CCN1CCN(c2ccc(NC(=O)/C(=C/c3ccc(OC)c(OC(C)=O)c3)c3cc(OC)c(OC)c(OC)c3)cc2)CC1

- IC50 [2]: 3.99 µM
SMILES: COc1ccc(/C=C(/C(=O)Nc2ccc(C)cc2)c2cc(OC)c(OC)c(OC)c2)cc1OC(C)=O

- IC50 [2]: 3.91 µM
SMILES: COc1ccc(/C=C(/C(=O)Nc2ccccc2)c2cc(OC)c(OC)c(OC)c2)cc1OC(C)=O

- IC50 [2]: 3.53 µM
SMILES: CCc1ccc(NC(=O)/C(=C/c2ccc(OC)c(OC(C)=O)c2)c2cc(OC)c(OC)c(OC)c2)cc1

- IC50 [2]: 3.01 µM
SMILES: COc1ccc(NC(=O)/C(=C/c2ccc(OC)c(OC(C)=O)c2)c2cc(OC)c(OC)c(OC)c2)cc1

- IC50 [1]: 17.3 µM
- IC50 [2]: 2.64 µM
- IC50 [4]: 30.2 µM
- IC50 [5]: 20.5 µM
- inhibition [6]: 3%
SMILES: COc1ccc(/C=C(/C(=O)Nc2ccc(Cl)cc2)c2cc(OC)c(OC)c(OC)c2)cc1OC(C)=O
- IC50 [3]: > 100 µM

- IC50 [7]: 6.9 µM
- IC50 [1]: 10.3 µM
- inhibition [15]: Active
- IC50 [2]: 2.42 µM
- IC50 [4]: 5.33 µM
- IC50 [5]: 6.28 µM
- inhibition [6]: 62%
SMILES: COc1ccc(/C=C(/C(=O)Nc2ccccc2)c2cc(OC)c(OC)c(OC)c2)cc1O
- Activity [8]: 0.27%
- Activity [9]: 1.87%
- Activity [10]: 3.33%
- Activity [11]: 13.9%
- Activity [12]: 32.71%
- Activity [13]: 53.47%
- Activity [14]: 4.97%
- Activity [16]: 40.69%
- Activity [17]: 1.98%
- Activity [18]: 32.36%
- Activity [19]: Dose-Dependent Effect
- Activity [20]: 2.96%
- Activity [21]: 22.72%
- Activity [22]: 5.15%
- Activity [23]: Dose-Dependent Effect
- Activity [24]: 1.35%
- IC50 [3]: > 100 µM
- Activity [25]: 1.65%
- Activity [26]: 53.73%
- viability at 1.2 µM [27]: 96.4%
- Activity [28]: 28.81%
- viability at 2.4 µM [29]: 93.1%
- Activity [30]: 46.63%
- viability at 4.8 µM [31]: 86.9%

- IC50 [1]: 23.4 µM
- IC50 [2]: 1.08 µM
- IC50 [4]: 18.1 µM
- IC50 [5]: 28.6 µM
- inhibition [6]: 3%
SMILES: COc1ccc(/C=C(/C(=O)Nc2ccc(C(C)C)cc2)c2cc(OC)c(OC)c(OC)c2)cc1OC(C)=O
- IC50 [3]: > 100 µM

- IC50 [1]: 9.79 µM
- IC50 [2]: 0.73 µM
- IC50 [4]: 4.71 µM
- IC50 [5]: 5.49 µM
- inhibition [6]: 34%
SMILES: COc1ccc(/C=C(/C(=O)Nc2cc(OC)c(OC)c(OC)c2)c2cc(OC)c(OC)c(OC)c2)cc1OC(C)=O
- IC50 [3]: > 100 µM
